Experiments:
GSC cells = assay: mRNA expression of super-enhancer-associated genes; type: cell-based; conditions: 96 h
Procedure: RNA-seq analysis was conducted to examine gene expression changes associated with super-enhancers/enhancers. Among the genes with de novo H3K4me2 modification, the average log2 fold changes (S2172 treatment relative to DMSO treatment) were −0.12 ± 0.03 for super-enhancer-related genes and −0.01 ± 0.01 for typical enhancer-related genes (P = 0.0004) (Supplementary Fig. S6B). In contrast, among the genes with increased H3K4me2 modification, the average log2 fold changes were −0.04 ± 0.01 for super-enhancer-related genes and −0.07 ± 001 for typical enhancer-related genes (P = 0.028) (Supplementary Fig. S6C). […]
(§1) instructions. For GSC cells, the CellTiter-Glo 3D Viability Assay (Promega, Madison, WI, USA) was used to measure the living cells. All proliferation experiments were repeated […]
Total RNA from the cell lines was extracted using TRIzol (Thermo Fisher Scientific), followed by reverse-transcription using Prime Script RT Master Mix (Takara, Kusatsu, Japan). TaqMan qPCR (Roche Diagnostics, Basel, Switzerland) and SYBR Green qPCR (TOYOBO, Osaka, Japan) were performed at least in triplicate for the target genes.
Expression levels of each gene were normalized to GAPDH. GAPDH for TaqMan PCR assays was Hs.PT.39a.22214836 (Integrated DNA Technologies, Coralville, IA, USA).
Oligonucleotide primers used for SYBR Green assays are shown in Supplementary […]

F3 = assay: Western blot of global histone modifications; type: cell-based; conditions: F3, 5 μM, 96 h
Procedure: The effects of S2172 on global histone modifications in GSCs were examined using western blot analysis. GSC cells were treated with 5 μM of S2172 since […] of the cells are still viable at this concentration (Fig. 2, Supplementary Fig. S1E). […] Treatment of GSCs with S2172 increased the overall levels of H3K4me2 as well as H3K9me2. However, these changes were not statistically significant (Fig. 2A, B). […]
as §1
The density of bands was quantified using ImageJ software (https://imagej.nih.gov/ij/). […]
When mice were scanned with MRI, mice were anesthetized with isoflurane (3% in air) and placed in MRS 3017 Benchtop MRI Systems (MR Solutions, Guildford, UK). Using MRI images, tumor volumes were obtained by compiling tumor areas from all slices that contained tumors and calculated by ImageJ software (https://imagej.nih.gov/ij/) {Towner, […]
A. Left panel: Western blot analysis of H3K4me1, H3K4me2, H3K4me3, and H3K9me2 after treatment with either DMSO or S2172 5μM for 96 h in normal neural stem cell F3 . […] Right panel: Quantification of signal intensities of the Western blot. […]
C. […] Right panel: Quantification of band signal intensities from the Western blot. […]

MAO-A = biological target: T1, MAO-A (Homo sapiens, UniProt P21397); assay: Enzyme inhibition assay (in vitro peroxidase assay) against MAO-A
T1 sequence (P21397 1-527): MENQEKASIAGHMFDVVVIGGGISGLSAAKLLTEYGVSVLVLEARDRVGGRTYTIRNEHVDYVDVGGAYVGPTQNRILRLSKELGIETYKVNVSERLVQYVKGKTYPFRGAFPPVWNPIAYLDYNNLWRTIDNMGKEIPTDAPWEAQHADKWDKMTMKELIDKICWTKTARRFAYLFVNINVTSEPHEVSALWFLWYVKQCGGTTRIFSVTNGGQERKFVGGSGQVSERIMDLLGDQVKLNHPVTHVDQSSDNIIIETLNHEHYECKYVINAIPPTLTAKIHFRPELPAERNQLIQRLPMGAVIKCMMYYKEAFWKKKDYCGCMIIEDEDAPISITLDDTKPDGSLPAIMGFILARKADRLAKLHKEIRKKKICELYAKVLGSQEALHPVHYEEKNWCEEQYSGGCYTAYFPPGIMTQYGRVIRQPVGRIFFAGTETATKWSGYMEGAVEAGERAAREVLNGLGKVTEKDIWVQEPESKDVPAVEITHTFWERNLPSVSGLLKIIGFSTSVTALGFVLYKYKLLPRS
Procedure: Enzyme inhibition assays against LSD1, LSD2, MAO-A, and MAO-B were performed as previously described [25]. Technical replicates, n = 3.

- Ki (MAO-A): > 250 µM
- Inhibition of MAO-A (in words) (MAO-A; in vitro peroxidase assay): not inhibited
Compound: NC1CCC(NC2CC2c2cc(F)cc(F)c2OCc2ccccc2)CC1 (stereo not shown) [S2172]
- expression of super-enhancer-associated genes EGR1 and CDK6 (GSC cells): downregulated
- changes in the levels of H3K4me1, H3K4me2, H3K4me3, and H3K9me2 (F3): not significant
